Results on 27 compounds are retold here after US11993576B2, “N-benzyl-N-arylsulfonamide derivative and preparation and use thereof” (Hangzhou Yirui Pharmaceutical Technology Co., Ltd, priority 2019, dated 2024).

pIC50: −log10 of the molar value.

In this assay the target is human Kv1.3 (Homo sapiens, UniProt P22001). Kind of assay: IonWorks automated patch clamp assay of inhibitory activity against Kv1.3. In kind it is cell-based. The following applies: automated patch clamp method; CHO-K1 cells stably expressing human Kv1.3. As for the experimental part:
I. IonWorks Automated Patch Clamp Assay of Inhibitory Activity Against Kv1.3
The principle and method for Kv1.3 IonWorks assay can be found in Schroeder et al. [Schroeder et al. J Biomol Screen 2003, 8(1):50-64]
Inhibitory activity of the compounds against Kv1.3 was assessed using a CHO-K1 recombinant cell line stably expressing human Kv1.3 (Charles River, Calif.). The cells were cultured in an F-12K culture medium containing 5% calf serum (Invitrogen, Carlsbad. Calif.) in an incubator at 37° C. and under air humidity with 6% CO2. Prior to be fed in the IonWorks system, the adherent cells were treated with Versene at 37° C. for 6-7 min. After gently beating the culture flask, the cells were re-suspended in a PBS phosphate buffer, and then were centrifuged at 50×g for 4 min. After a short grinding, the cells were eventually re-suspended in an external recording solution at a density of approximately 1×10^6/mL.
The compounds were dissolved in DMSO to formulate a final assay concentration of 300× on the master plate. The final gradient assay concentrations were […], 0.096, 0.048, 0.24, 1.2, 6 and 30 μM. All 300× stock solutions of each compound in DMSO were transferred to a 384-well plate with 2 μl per well. The plates were sealed and stored at −80° C. until the day of assay.
On the day of assay, the plates were each thawed at room temperature. After centrifugation, 198 μl of the external recording solution (with the components of: 130 mM Na-Gluconate, 20 mM NaCl, 4 mM KCl, 1 mM MgCl2, 1.8 mM CaCl2, 5 mM Glucose and 10 mM HEPES, pH7.3) was added and mixed thoroughly. This step provided a 1:100 dilution for the compounds. After addition of cells to IonWorks, a further 1:3 dilution was carried out, resulting in a total dilution of 1:300. At least 8 wells were reserved as blank control on each of the plates, i.e., containing only 0.3% DMSO. In addition, at least 8 wells were reserved as positive control to detect the specificity to cell signals. Fluoxetine, a compound as the positive control, was assayed at its maximum blocking concentration (100 μm) and secondary maximum blocking concentration (10 μm). In addition, an internal recording solution used in the assay (with the components of: 100 mM K-gluconate, 40 mM KCl, 1 mM MgCl2, 1 mM EGTA and 10 mM HEPES, pH7.3) contained Amphotericin B at a final concentration of 200 μg/mL to gain current channels inside the cells. The osmotic pressure of the solution was adjusted with sucrose.
Experimental procedures were carried out following the protocols as set by IonWorks Quattro system (Molecular Devices, San Jose, CA). The current of human Kv1.3 was elicited to 0 millivolt (mV) for four times by a pulse lasting 1 second. A potential of −80 mV was maintained between pulses, for 5 seconds. First, a early voltage application program was started in the IonWorks Quattro system, and then the compounds were added and incubated for 600 seconds. Next, a late voltage application program was started until completion of all assays.
The maximum peak outward currents both before and after addition of the compounds as well as the average tail current elicited when the fourth pulse rose to 0 mV were measured. The inhibitory activity of the compounds against Kv1.3 can be calculated by dividing the measured current amplitude after addition of the compounds by the measured current amplitude before addition of the compounds.
All data was calibrated by a data filtration program of the IonWorks Quattro system. The filtration standard was that: seal quality >30 MΩ, decrease of seal resistance <50% and current amplitude >200 pA.

Chain of human Kv1.3 (P22001 whole entry): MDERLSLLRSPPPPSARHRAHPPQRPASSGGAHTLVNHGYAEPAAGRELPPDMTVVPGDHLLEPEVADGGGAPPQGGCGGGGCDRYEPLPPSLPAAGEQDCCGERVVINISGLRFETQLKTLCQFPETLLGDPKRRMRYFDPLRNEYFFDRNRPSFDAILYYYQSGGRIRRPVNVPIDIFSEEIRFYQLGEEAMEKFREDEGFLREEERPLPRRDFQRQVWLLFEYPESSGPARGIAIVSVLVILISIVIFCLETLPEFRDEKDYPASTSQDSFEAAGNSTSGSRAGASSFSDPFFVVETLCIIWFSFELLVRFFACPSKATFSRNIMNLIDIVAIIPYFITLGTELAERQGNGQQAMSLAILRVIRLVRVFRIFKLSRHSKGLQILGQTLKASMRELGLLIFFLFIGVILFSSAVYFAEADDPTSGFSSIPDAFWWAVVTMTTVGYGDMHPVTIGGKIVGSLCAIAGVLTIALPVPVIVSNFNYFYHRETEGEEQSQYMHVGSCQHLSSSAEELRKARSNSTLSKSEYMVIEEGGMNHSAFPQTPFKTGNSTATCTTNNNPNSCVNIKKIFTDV

Usually pIC50 stands for the negative decadic logarithm of the IC50, by convention in mol/L. The low end stands for a large IC50, the high end for a small IC50. Turning to `CCCS(=O)(=O)N(Cc1cccc(OC)c1)c1ccc(N2CCN(C(=O)OCC)CC2)c(C#N)c1` [Compound 26, Ethyl 4-(2-cyano-4-(N-(3-methoxybenzyl)propanesulfonamido)phenyl) piperazin-1-formate], the pIC50 was 6.38. For `CC(=O)N1CCC(Oc2ccc(N(Cc3ccccc3)S(=O)(=O)c3ccccc3)cc2C#N)CC1` [Compound 59, N-(4-((1-acetylpiperidin-4-yl)oxy)-3-cyanophenyl)-N-benzylbenzenesulfonamide] the value was 6.36.

Turning to `CCCS(=O)(=O)N(Cc1ccc(F)cc1)c1ccc(NC2CCN(C=O)CC2)c(C#N)c1` [Compound 58, N-(4-((1-formylpiperidin-4-yl)amino)-3-cyanophenyl)-N-(4-fluoro-benzyl)propanesulfonamide], the negative logarithm of the IC50 (pIC50) was 6.55.

`CCOC(=O)N1CCN(c2ccc(N(CC(C)C)S(=O)(=O)c3ccccc3)cc2C#N)CC1` [Compound 13, ethyl 4-(2-cyano-4-(N-isobutylphenylsulfonamido)phenyl)piperazin-1-formate] showed a negative-log IC50 (pIC50) of 5.19. In turn, `CCCS(=O)(=O)N(Cc1ccc(F)cc1)c1ccc(N2CCN(C(=O)OCC)CC2)c(C#N)c1` [Compound 9, ethyl 4-(2-cyano-4-(N-(4-fluorobenzyl)propanesulfonamido)phenyl)piperazin-1-formate] gave a negative logarithm of the IC50 (pIC50) of 6.87.

`N#Cc1cc(N(Cc2ccccc2)S(=O)(=O)c2ccccc2)ccc1N1CCC(O)CC1` [Compound 6, N-benzyl-N-(3-cyano-4-(4-hydroxypiperidin-1-yl)phenyl)benzenesulfonamide]: the negative logarithm of the IC50 (pIC50) is 6.71. `CN(C)S(=O)(=O)N1CCN(c2ccc(N(Cc3ccnn3C)S(=O)(=O)c3ccc(F)cc3)cc2C#N)CC1` [Compound 46, 4-(2-cyano-4-((4-fluoro-N-((1-methyl-1H-pyrazol-5-yl)methyl)phenyl)sulfonamido)phenyl)-N,N-dimethylpiperazin-1-sulfonamide] gave a negative-log IC50 (pIC50) of 6.45. The value for `CCOC(=O)N1CCN(c2ccc(N(Cc3ccc(F)cc3)S(=O)(=O)c3ccc(F)cc3)cc2C#N)CC1` [Compound 2, ethyl 4-(2-cyano-4-((4-fluoro-N-(4-fluorobenzyl)phenyl)sulfonamido)phenyl)piperazin-1-formate] was 6.88; that for `CC(=O)NC1CCN(c2ccc(N(Cc3ccccc3)S(=O)(=O)c3ccccc3)cc2C#N)C1` (stereo not drawn) [Compound 15, N-(1-(4-(N-benzylbenzenesulfonamido)-2-cyanophenyl)pyrrolidin-3-yl)acetamide] was 6.51. For `CCCCS(=O)(=O)N(Cc1ccc(F)cc1)c1ccc(N2CCN(C(=O)N(C)C)CC2)c(C#N)c1` [Compound 38, 4-(2-cyano-4-(N-(4-fluorobenzyl)butanesulfonamido)phenyl)-N,N-dimethylpiperazin-1-formamide], the pIC50 was 7.00. The compound `CCCS(=O)(=O)N(Cc1ccc(F)cc1)c1ccc(OC2CCN(C(C)=O)CC2)c(C#N)c1` [Compound 53, N-(4-((1-acetylpiperidin-4-yl)oxy)-3-cyanophenyl)-N-(4-fluorobenzyl) propanesulfonamide] showed a pIC50 of 6.54. Turning to `CCCS(=O)(=O)N(Cc1ccc(OC)cc1F)c1ccc(N2CCN(C(=O)OCC)CC2)c(C#N)c1` [Compound 29, Ethyl 4-(2-cyano-4-(N-(2-fluoro-4-methoxybenzyl)propanesulfonamido)phenyl)piperazin-1-formate], the pIC50 is 6.36. The value for `CN(C)C(=O)N1CCN(c2ccc(N(Cc3ccccc3)S(=O)(=O)c3ccccc3)cc2C#N)CC1` [Compound 11, 4-(4-(N-benzylbenzenesulfonamido)-2-cyanophenyl)-N,N-dimethylpiperazin-1-formamide] was 6.71; that for `CCCS(=O)(=O)N(Cc1ccc(F)cc1)c1ccc(OC2CCN(C=O)CC2)c(C#N)c1` [Compound 56, N-(4-((1-formylpiperidin-4-yl)oxy)-3-cyanophenyl)-N-(4-fluorobenzyl) propanesulfonamide] was 6.60; that for `CC(C)CCS(=O)(=O)N(Cc1ccc(F)cc1)c1ccc(N2CCN(C(=O)N(C)C)CC2)c(C#N)c1` [Compound 39, 4-(2-cyano-4-((N-(4-fluorobenzyl)-3-methylbutyl)sulfonamido)phenyl)-N,N-dimethylpiperazin-1-formamide] was 6.81. For `CCCS(=O)(=O)N(Cc1cccc(F)c1)c1ccc(N2CCN(C(=O)OCC)CC2)c(C#N)c1` [Compound 23, Ethyl 4-(2-cyano-4-(N-(3-fluorobenzyl)propanesulfonamido)phenyl) piperazin-1-formate] the value was 6.75; for `CCS(=O)(=O)N(Cc1ccc(F)cc1)c1ccc(N2CCN(S(=O)(=O)N(C)C)CC2)c(C#N)c1` [Compound 43, 4-(2-cyano-4-(N-(4-fluorobenzyl)ethanesulfonamido)phenyl)-N,N-dimethylpiperazin-1-sulfonamide], 6.91; for `CCCS(=O)(=O)N(Cc1ccco1)c1ccc(N2CCN(C(=O)OCC)CC2)c(C#N)c1` [Compound 33, Ethyl 4-(2-cyano-4-(N-(furan-2-ylmethyl)propanesulfonamido)phenyl) piperazin-1-formate], 6.08. `CCCS(=O)(=O)N(Cc1ccc(F)cc1)c1ccc(NC2CCN(C(C)=O)CC2)c(C#N)c1` [Compound 55, N-(4-((1-acetylpiperidin-4-yl)amino)-3-cyanophenyl)-N-(4-fluorobenzyl)propanesulfonamide] had a pIC50 of 6.80. Consider `CCCS(=O)(=O)N(Cc1ccc(OC)cc1)c1ccc(N2CCN(C(=O)OCC)CC2)c(C#N)c1` [Compound 27, Ethyl 4-(2-cyano-4-(N-(4-methoxybenzyl)propanesulfonamido)phenyl)piperazin-1-formate], for which the pIC50 is 6.62. Compound `CCOC(=O)N1CCN(c2ccc(N(C(=O)c3ccccc3)S(=O)(=O)c3ccccc3)cc2C#N)CC1` [Compound 4, ethyl 4-(2-cyano-4-(N-(benzenesulfonamido)benzamido)phenyl)piperazin-1-formate] gave a negative logarithm of the IC50 (pIC50) of 4.89. The value for `CN(C)S(=O)(=O)C1CCN(c2ccc(N(Cc3ccccc3)S(=O)(=O)c3ccccc3)cc2C#N)CC1` [Compound 12, 1-(4-(N-benzylbenzenesulfonamido)-2-cyanophenyl)-N,N-dimethylpiperidin-4-sulfonamide] was 6.63. For `CN(C)C(=O)N1CCN(c2ccc(N(Cc3ccc(F)cc3)S(=O)(=O)CC(C)(C)C)cc2C#N)CC1` [Compound 40, 4-(2-cyano-4-((N-(4-fluorobenzyl)-2,2-dimethylpropyl)sulfonamido)phenyl)-N,N-dimethylpiperazin-1-formamide], the negative logarithm of the IC50 (pIC50) was 6.69. `CCCS(=O)(=O)N(Cc1ccccc1)c1ccc(N2CCN(C(=O)OCC)CC2)c(C#N)c1` [Compound 22, Ethyl 4-(4-(N-benzylpropanesulfonamido) 2-cyanophenyl)piperazin-1-formate]: the pIC50 was 6.48. `CCOC(=O)N1CCN(c2ccc(N(Cc3ccccc3)S(=O)(=O)c3ccccc3)cc2C#N)CC1` [Compound 1, ethyl 4-(4-(N-benzylbenzenesulfonamido)-2-cyanophenyl)piperazin-1-formate]: the pIC50 was 6.58.

In the case of `CCCS(=O)(=O)N(Cc1ccc(F)cc1)c1ccc(NC2CCNCC2)c(C#N)c1` [Compound 52, N-(3-cyano-4-(piperidin-4-ylamino)phenyl)-N-(4-fluorobenzyl) propanesulfonamide], the negative logarithm of the IC50 (pIC50) was 6.86. Compound `CCOC(=O)N1CCN(c2ccc(N(Cc3ccc(F)c(OC)c3)S(=O)(=O)c3ccc(F)cc3)cc2C#N)CC1` [Compound 3, ethyl 4-(2-cyano-4-((4-fluoro-N-(4-fluoro-3-methoxybenzyl)phenyl)sulfonamido)phenyl)piperazin-1-formate] had a pIC50 of 6.97.
